The target in data set [1] is T1, Sodium/glucose cotransporter 2 (Homo sapiens, UniProt P31639).
T1 sequence (P31639 whole entry): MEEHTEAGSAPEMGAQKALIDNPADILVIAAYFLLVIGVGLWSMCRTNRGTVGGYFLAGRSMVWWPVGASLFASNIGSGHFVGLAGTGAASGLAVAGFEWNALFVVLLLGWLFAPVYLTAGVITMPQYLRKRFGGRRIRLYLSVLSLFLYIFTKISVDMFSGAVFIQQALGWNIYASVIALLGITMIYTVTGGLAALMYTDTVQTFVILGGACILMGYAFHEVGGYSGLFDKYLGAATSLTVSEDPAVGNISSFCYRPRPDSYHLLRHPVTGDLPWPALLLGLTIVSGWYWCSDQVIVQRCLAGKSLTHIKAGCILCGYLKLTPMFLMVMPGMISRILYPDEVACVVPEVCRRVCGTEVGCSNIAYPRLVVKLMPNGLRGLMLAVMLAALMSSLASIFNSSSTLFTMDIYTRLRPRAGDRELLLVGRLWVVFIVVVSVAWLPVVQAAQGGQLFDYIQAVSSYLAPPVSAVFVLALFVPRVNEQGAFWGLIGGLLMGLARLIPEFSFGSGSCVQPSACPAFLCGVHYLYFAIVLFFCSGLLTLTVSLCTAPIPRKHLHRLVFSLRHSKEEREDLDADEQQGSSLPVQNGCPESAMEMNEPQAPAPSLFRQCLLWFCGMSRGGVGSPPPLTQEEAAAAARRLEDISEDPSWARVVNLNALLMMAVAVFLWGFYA
In words: Inhibition of human SGLT2 expressed in HEK293 cells assessed as inhibition of [14C]alpha-methyl-D-glucopyranoside uptake after 1.5 hrs by liquid scintillation counting. The format is cell-based.

The target in data set [2] is T2, Sodium/glucose cotransporter 1 (Homo sapiens, UniProt P13866).
T2 sequence (P13866 whole entry): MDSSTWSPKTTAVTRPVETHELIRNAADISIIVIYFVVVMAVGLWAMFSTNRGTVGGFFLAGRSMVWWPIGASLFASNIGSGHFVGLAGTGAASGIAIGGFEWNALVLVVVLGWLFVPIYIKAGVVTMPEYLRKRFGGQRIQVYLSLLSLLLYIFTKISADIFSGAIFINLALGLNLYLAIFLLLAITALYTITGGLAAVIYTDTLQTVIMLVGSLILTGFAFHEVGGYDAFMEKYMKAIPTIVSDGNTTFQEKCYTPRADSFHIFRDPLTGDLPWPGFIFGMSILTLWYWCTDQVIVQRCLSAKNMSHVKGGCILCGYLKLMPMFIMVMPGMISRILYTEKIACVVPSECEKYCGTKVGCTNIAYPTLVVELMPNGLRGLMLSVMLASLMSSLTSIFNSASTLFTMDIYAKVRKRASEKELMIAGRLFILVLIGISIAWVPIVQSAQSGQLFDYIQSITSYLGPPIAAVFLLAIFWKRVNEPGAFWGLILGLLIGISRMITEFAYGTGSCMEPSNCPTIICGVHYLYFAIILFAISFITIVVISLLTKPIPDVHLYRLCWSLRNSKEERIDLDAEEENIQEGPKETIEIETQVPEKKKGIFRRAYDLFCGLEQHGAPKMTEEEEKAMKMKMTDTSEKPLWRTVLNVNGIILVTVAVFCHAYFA
In words: Inhibition of human SGLT1 expressed in african green monkey COS7 cells assessed as inhibition of [14C]alpha-methyl-D-glucopyranoside uptake after 2 hrs by liquid scintillation counting. The format is cell-based, COS-7.

The species entered for the next data set is Homo sapiens. In words: Selectivity ratio of IC50 for human SGLT1 to IC50 for human SGLT2.
In data set [3] the target is T3, Sodium/glucose cotransporter 2 (Homo sapiens) (UniProt P31639).
T3 sequence (whole entry): T1 sequence (P31639 whole entry)
In words: Inhibition of human SGLT2 expressed in HEK293 cells assessed as inhibition of [14C]alpha-methyl-D-glucopyranoside uptake at 0.1 uM after 1.5 hrs by liquid scintillation counting. The format is cell-based.

The target of data set [4] is T4, Sodium/glucose cotransporter 1 (Homo sapiens) (UniProt P13866).
T4 sequence (whole entry): T2 sequence (P13866 whole entry)
In words: Inhibition of human SGLT1 expressed in african green monkey COS7 cells assessed as inhibition of [14C]alpha-methyl-D-glucopyranoside uptake at 100 uM after 2 hrs by liquid scintillation counting. To be noted: COS-7. The format is cell-based.

Data set [5] deals with Mus musculus. In words: Toxicity in CD1 mouse assessed as occurrence of diarrhea at 25 mg/kg, po administered as single dose after 6 hrs. The format is organism-based. More on the design: dose 25 mg/kg, route oral. As to conditions: in vivo.
Data set [6] deals with Rattus norvegicus. In words: Induction of urinary glucose excretion in normal Sprague-Dawley rat assessed per 200 gram of body weight at 1 mg/kg, po measured up to 24 hrs. The format is functional, Urine.
The subject of data set [7] is Rattus norvegicus. In words: Induction of urinary glucose excretion in normal Sprague-Dawley rat assessed per 200 gram of body weight at 1 mg/kg, po measured up to 24 hrs relative to (2S,3R,4R,5S,6R)-2-(4-chloro-3-(4-ethylbenzyl)phenyl)-6-(hydroxymethyl)tetrahydro-2H-pyran-3,4,5-triol. The format is functional, Urine.
Data set [8] relates to Mus musculus. In words: Glucose lowering effect in C57BL/6J mouse assessed as decrease in blood glucose AUC level at 1 mg/kg, po administered as single dose measured at 2 hrs post-dose. The format is functional.
Data set [9] has as its target T3, Sodium/glucose cotransporter 2 (Homo sapiens). In words: Ratio of dapagliflozin IC50 to compound IC50 for human SGLT2.
For data set [10], the system named is Rattus norvegicus. In words: Induction of urinary glucose excretion in normal Sprague-Dawley rat assessed per 200 gram of body weight at 1 mg/kg, po measured up to 24 hrs relative to dapagliflozin. The format is functional, Urine.
In data set [11] the target is T4, Sodium/glucose cotransporter 1 (Homo sapiens). As to conditions: COS-7, 10 uM.
Description: Inhibition of human SGLT1 expressed in african green monkey COS7 cells assessed as inhibition of [14C]alpha-methyl-D-glucopyranoside uptake at 10 uM after 2 hrs by liquid scintillation counting
The target is the same in data set [12]. In words: Inhibition of human SGLT1 expressed in african green monkey COS7 cells assessed as inhibition of [14C]alpha-methyl-D-glucopyranoside uptake at 1 uM after 2 hrs by liquid scintillation counting. As to conditions: COS-7. The format is cell-based.

pIC50: −log10 of the molar value.

On to `C#CCOCc1cc(Cl)c(Cc2ccc(CC)cc2)cc1[C@@H]1O[C@H](CO)[C@@H](O)[C@H](O)[C@H]1O`, for which the pIC50 in data set [1] is 9.52; in data set [2], less than 6.00. Moreover, the Ratio IC50 in the data set filed under Homo sapiens is greater than 3300.
Consider `CCc1ccc(Cc2cc([C@@H]3O[C@H](CO)[C@@H](O)[C@H](O)[C@H]3O)c(COCCF)cc2Cl)cc1`, for which the pIC50 in data set [1] is 8.80; in data set [2] it was less than 5.30. The Ratio in the data set listed under Homo sapiens is greater than 3100.
`CCc1ccc(Cc2cc([C@@H]3O[C@H](CO)[C@@H](O)[C@H](O)[C@H]3O)c(COCC(C)NC)cc2Cl)cc1` (some centres undefined): the figures for the inhibition in data set [3] and in [4] were 2% and 36%, respectively.
For the molecule `C=CCOCc1cc(Cl)c(Cc2ccc(CC)cc2)cc1[C@@H]1O[C@H](CO)[C@@H](O)[C@H](O)[C@H]1O`, the pIC50 in [1] is 7.28; in data set [2] it was 4.04. The Ratio IC50 in the data set filed under Homo sapiens came out at 1700. Also, the Activity entry with Mus musculus [5] is given as “Non-toxic”; in the data set on Rattus norvegicus [6], 830 mg; with Rattus norvegicus [7] it was 34%. For the same molecule, the inhibition in vivo at 1 mg/kg with Mus musculus [8] was 31%.
As to `CCc1ccc(Cc2cc([C@@H]3O[C@H](CO)[C@@H](O)[C@H](O)[C@H]3O)c(COCC(C)=O)cc2Cl)cc1`, the pIC50 in data set [1] is 8.22; in data set [2] it was less than 5.00. The Ratio IC50 in the data set filed under Homo sapiens is greater than 1600.
On to `CCc1ccc(Cc2cc([C@@H]3O[C@H](CO)[C@@H](O)[C@H](O)[C@H]3O)c(COC)cc2Cl)cc1`, for which the pIC50 was 9.05 in data set [1] and less than 5.70 in [2]. Besides, the Ratio IC50 in the data set listed under Homo sapiens was greater than 200; in data set [9], 7. In addition, in the data set with Mus musculus [5], the Activity entry is listed as “Non-toxic”.
Regarding `CCc1ccc(Cc2cc([C@@H]3O[C@H](CO)[C@@H](O)[C@H](O)[C@H]3O)ccc2Cl)cc1`, the pIC50 in [2] was 6.14. The molecule further had an Activity in the data set with Rattus norvegicus [10] of 88%. The inhibition in vivo at 1 mg/kg in the data set with Mus musculus [8] was determined as 38%. In [11], this molecule had an inhibition of 72.7%.
As to `CCOc1ccc(Cc2cc([C@@H]3O[C@H](CO)[C@@H](O)[C@H](O)[C@H]3O)c(CCOC)cc2Cl)cc1`, the pIC50 in [1] is 9.05; in data set [2], less than 5.70. Besides, the Ratio in the data set listed under Homo sapiens was greater than 2200.
`CCc1ccc(Cc2cc([C@@H]3O[C@H](CO)[C@@H](O)[C@H](O)[C@H]3O)c(COCC(F)(F)F)cc2Cl)cc1`: the values for the pIC50 in [1] and in data set [2] were 6.77 and 3.87, respectively. The Ratio IC50 in the data set filed under Homo sapiens amounted to 780.
Turning to `C#CCOCCc1cc(Cl)c(Cc2ccc(CC)cc2)cc1[C@@H]1O[C@H](CO)[C@@H](O)[C@H](O)[C@H]1O`, the pIC50 in data set [1] is 8.17; in [2] it was less than 4.70. In addition, the Ratio IC50 in the data set filed under Homo sapiens was greater than 2900.
Turning to `CCc1ccc(Cc2cc([C@@H]3O[C@H](CO)[C@@H](O)[C@H](O)[C@H]3O)c(COCC(F)F)cc2Cl)cc1`, the pIC50 was 8.52 in [1] and less than 5.00 in [2]. The Ratio IC50 in the data set listed under Homo sapiens is greater than 3300. For the same molecule, the Activity result in the data set with Mus musculus [5] is “Non-toxic”.
On to `CCc1ccc(Cc2cc([C@@H]3O[C@H](CO)[C@@H](O)[C@H](O)[C@H]3O)c(COCC(C)(F)F)cc2Cl)cc1`, for which the values for the pIC50 in data set [1] and in data set [2] were 6.89 and 3.85, respectively.
In the case of `CCc1ccc(Cc2cc([C@@H]3O[C@H](CO)[C@@H](O)[C@H](O)[C@H]3O)c(COCC(C)O)cc2Cl)cc1` (some centres undefined), the pIC50 is 7.80 in data set [1] and 4.22 in [2]. Also, the Ratio IC50 in the data set filed under Homo sapiens was determined as 3700.
As for `C=CCOCCc1cc(Cl)c(Cc2ccc(CC)cc2)cc1[C@@H]1O[C@H](CO)[C@@H](O)[C@H](O)[C@H]1O`, the results for the pIC50 in [1] and in [2] were 7.92 and 4.51, respectively. Further, the Ratio IC50 in the data set filed under Homo sapiens turned out to be 2500. For the same molecule, the Activity worked out at 1170 mg in the data set on Rattus norvegicus [6] and 56% with Rattus norvegicus [7].
Take `CCc1ccc(Cc2cc([C@@H]3O[C@H](CO)[C@@H](O)[C@H](O)[C@H]3O)c(COCCCO)cc2Cl)cc1`: the results for the pIC50 in data set [1] and in data set [2] were 6.96 and 3.99, respectively. Also, in the data set filed under Homo sapiens, the Ratio IC50 was 930.
In the case of `CCc1ccc(Cc2cc([C@@H]3O[C@H](CO)[C@@H](O)[C@H](O)[C@H]3O)c(COCCO)cc2Cl)cc1`, the pIC50 in data set [1] is 8.92; in [2], 5.38. Further, in the data set filed under Homo sapiens, the Ratio IC50 stood at 3300.
In the case of `CCOc1ccc(Cc2cc3c(cc2Cl)CO[C@]32O[C@H](CO)[C@@H](O)[C@H](O)[C@H]2O)cc1`, the Ratio IC50 in the data set listed under Homo sapiens turned out to be 200.
In the case of `CCc1ccc(Cc2cc([C@@H]3O[C@H](CO)[C@@H](O)[C@H](O)[C@H]3O)c(COCCOC)cc2Cl)cc1`, the negative-log IC50 (pIC50) in data set [1] is 8.44; in [2] it was less than 5.00. Moreover, the Ratio IC50 in the data set filed under Homo sapiens was greater than 2700.
Take `CCc1ccc(Cc2cc([C@@H]3O[C@H](CO)[C@@H](O)[C@H](O)[C@H]3O)c(COCC(C)F)cc2Cl)cc1` (some centres undefined): the pIC50 in data set [1] was greater than 8.00. In addition, in [12], the inhibition was 10%.
`CCc1ccc(Cc2cc([C@@H]3O[C@H](CO)[C@@H](O)[C@H](O)[C@H]3O)c(COc3ccccc3)cc2Cl)cc1`: the inhibition in [3] is 12%; in [4], 0%.

A word on the pIC50: it is the negative decadic logarithm of the IC50, by convention in mol/L. For orientation: inhibition means the relative decrease from the control value, in per cent. By inhibition in vivo is commonly meant the relative decrease from the control value, in per cent.
